Source: US20030119748A1 (Idun Pharmaceuticals, Inc., priority 1996, published 2003)

The molecules below were run against T1, mICE (Mus musculus, UniProt P29452) (assay: Dissociation constant Ki for irreversible inhibitors, continuous assay (Example 1B)). Conditions: compounds of Formula B and Formula C, procedure of Example 1B.
T1 sequence (P29452 119-402): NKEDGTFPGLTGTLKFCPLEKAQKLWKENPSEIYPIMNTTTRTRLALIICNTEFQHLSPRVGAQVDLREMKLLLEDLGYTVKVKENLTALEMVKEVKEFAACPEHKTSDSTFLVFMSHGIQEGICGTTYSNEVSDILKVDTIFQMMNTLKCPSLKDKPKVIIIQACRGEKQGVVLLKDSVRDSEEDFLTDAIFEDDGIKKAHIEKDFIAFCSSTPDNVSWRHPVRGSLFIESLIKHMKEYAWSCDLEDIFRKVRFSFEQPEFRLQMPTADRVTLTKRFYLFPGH
Assay type: biochemical
Description: B. Determination of the Dissociation Constant K1 and Irreversible Rate Constant k3 for Irreversible Inhibitors
For the irreversible inhibition of a ICE/ced-3 Family Protease enzyme with a competitive irreversible inhibitor; using the model represented by the following formulas: [drawing 4]
The product formation at time t may be expressed as: [drawing 5]
where E, I, EI, and E-I denote the active enzyme, inhibitor, non-covalent enzyme-inhibitor complex and covalent enzyme-inhibitor adduct, respectively. The K1 value is the overall dissociation constant of reversible binding steps, and k3 is the irreversible rate constant. The [S] and Ks values are the substrate concentration and the dissociation constant of the substrate bound to the enzyme, respectively. [E]^T is the total enzyme concentration.
The above equations were used to determine the K1 and k3 values of a given inhibitor bound to a ICE/ced-3 family protease. Thus, a continuous assay was run for sixty minutes at various concentrations of the inhibitor and the substrate. The assay was formulated essentially the same as described in Example 1A above, except that the reaction was initiated by adding the enzyme to the substrate-inhibitor mixture. The K1 and k3 values were obtained by simulating the product AMC formation as a function of time according to Equation 1. The reference compound for this assay was Cbz-ValAlaAsp-CH2F.
`CC(C)C(NC(=O)c1cc2ccccc2n1CCCc1ccccc1)C(=O)NC(CC(=O)O)C(=O)CF` (stereo not shown) [Example 52, N-[(1-(3′-Phenylpropyl)Indole-2-Carbonyl)Valinyl]-3-Amino-4-Oxo-5-Fluoropentanoic Acid] was tested, and the Ki was < 1 µM. `CC(C)[C@H](NC(=O)c1cc2ccccc2n1-c1ccccc1)C(=O)NC(CC(=O)O)C(=O)CF` (stereo partly shown) [Example 55, N-[(1-Phenylindole-2-Carbonyl)Valinyl]-3-Amino-4-Oxo-5-Fluoropentanoic Acid] was tested, and the Ki was < 1 µM. `CC(C)[C@H](NC(=O)c1cc2ccccc2n1CC(=O)O)C(=O)NC(CC(=O)O)C(=O)CF` (stereo partly shown) [Example 58, N-[(1-(Carboxymethyl)Indole-2-Carbonyl)Valinyl]-3-Amino-4-Oxo-5-Fluoropentanoic Acid] was tested, and the Ki was < 1 µM. With `Cc1c(C(=O)NC(C(=O)NC(CC(=O)O)C(=O)COc2ccccc2C(N)=O)C(C)C)n(C)c2ccccc12` (stereo not shown) [Example 74, N-(1,3-Dimethyl-indole-2-carbonyl)-Valinyl-3-amino-5-(2-aminocarbonyl-1-phenyl)oxy-4-oxo-pentanoic Acid] the Ki was < 1 µM.
